Results as given in patent publication US20030113312A1, “Skin barrier function and cohesion through enhanced stratum corneum acidification” (The Regents of the University of California, priority 2001, published 2003).

Legend:
[1] = system: hairless mice skin (stratum corneum); assay: Stratum corneum cohesion: protein removed per D-Squame stripping; assay type: in vivo, mouse; conditions: for cumulative protein loss at the fifth strip: fatty acid co-applied with BPB for three days
Description: Before stripping the stratum corneum, the skin surface was cleaned with a single ethanol wipe. D-Squame tapes then were placed sequentially to the test areas for about 3 sec each, removed with forceps, and stored in glass scintillation vials at 5° C.
The protein content per stripping was determined with the Bio-Rad protein assay kit. […] Each tape was incubated with 1 M NaOH for 1 hour at 37° C. in an incubator shaker at 80 rpm, and neutralized thereafter with 1 mL of 1 M HCl in the scintillation vials. Subsequently, 0.2 mL of this solution was incubated in 0.6 ml distilled water plus 0.2 mL of the Bio-Rad protein dye for 5 minutes in boroscillate tubes. […] An empty D-Squame tape, as well as distilled water incubated with Bio-Rad dye, served as negative controls. The amount of calculated protein was then normalized to skin surface area (μg/cm^2).

[2] = system: hairless mice skin (stratum corneum); assay: Skin surface pH after topical treatment or buffer exposure; assay type: in vivo, mouse; conditions: free fatty acid co-applied with BPB for three days
Description: Animals: Male hairless mice (Skh1/Hr, Charles River Laboratories, Wilmington, Mass.), 8-12 weeks old, were fed Purina mouse diet and water ad libitum. […] Functional experiments were performed on animals aged 6-10 weeks.
The mice were anesthetized with chloral hydrate (Morton Grove Pharmaceuticals, Morton Grove, Ill., USA). After 3 hours immersion at 37° C., the mice were removed, and the remaining buffer was gently blotted off. After 15 minutes, barrier function was determined by measurement of transepidermal water loss (TEWL) with an electrolytic water analyzer (MEECO®, Warrington, Pa.). Surface pH was measured with a flat, glass surface electrode from Mettler-Toledo (Giessen, Germany), attached to a pH meter (Skin pH Meter PH 900, Courage & Khazaka, Cologne, Germany). Individually tested sites were covered with Hilltop Chambers (HtC, nominal volume 200 mL), which were reapplied following each indvidual measurement.

[3] = system: hairless mice skin (stratum corneum); assay: Stratum corneum integrity: TEWL after sequential tape stripping; assay type: in vivo, mouse; conditions: for TEWL rate by the fifth strip: fatty acid co-applied with BPB for three days; for sPLA2 inhibitor induced abnormalities in stratum corneum integrity and cohesion: fatty acid co-applied with BPB or MJ33
Description: The mice were anesthetized with chloral hydrate (Morton Grove Pharmaceuticals, Morton Grove, Ill., USA). […] After 15 minutes, barrier function was determined by measurement of transepidermal water loss (TEWL) with an electrolytic water analyzer (MEECO®, Warrington, Pa.). […] Individually tested sites were covered with Hilltop Chambers (HtC, nominal volume 200 mL), which were reapplied following each indvidual measurement.

[4] = biological target: T1, NHE1 antiporter (Homo sapiens, UniProt P19634); assay: Intracellular pH (BCECF) and recovery from acid load in cultured human keratinocytes; assay type: cell-based
T1 construct: endogenous in cells; host or cells: second passage cultured human keratinocytes from human foreskin (CHK)
Description: Assessment of Intracellular pH: Keratinocytes were plated on glass coverslips and grown in Cascade 154 medium containing 0.07 mM Ca^2+. The coverslips were incubated in 145 μM BCECF-AM ester at room temperature for 5 minutes, then rinsed for 30 minutes in buffer containing either 28 mM HEPES, 136 mM NaCl, 5 mM KCl, 0.07 mM CaCl2 and 10 mM glucose, pH 7.4 or Ringer solution (136 mM NaCl, 5 mM KCl, 0.03 mM Ca2+, 28 mM TES, 14 mM Na HCO3, NaOH to adjust the pH to 7.4, and 10 mM glucose (pH 7.4, 330 mOsm)). BCECF-AM-ester is membrane permeable; once inside cells it is de-esterified by endogenous […], trapping flourescently-active, acidic BCECF inside the cells. The BCECF-loaded cells were placed in a superfusion chamber mounted on a inverted microscope (Nikon). The keratinocytes were superfused with one of the two solutions, and baseline intracellular pH was monitored constantly using a ratiometric method (Paradiio et al (1987) Am J. Physiol. 253:C30-6). Briefly, BCECF loaded cells were alternately illuminated every 10 seconds with brief flashes (200 milliseconds) of 440 nm and 490 nm light. The resultant fluorescence (at 530 nm) from each stimulating wavelength was measured with a CCD camera (Hamamatsu) digitally ratioed, and stored using a software program (Fluor, Universal Imaging Co., West Chester, Pa.). Whereas fluorescence emission at 440 nm excitation remains constant, indicative of dye concentration, emission from 490 nm varies proportionally with changes intracellular pH. By ratioing the two signals, intracellular pH is measured as a brightness signal corrected for the intracellular dye concentration.
Calibration was performed at the end of each experiment by permeablizing the cells to protons with nigericin, thereby equilibrating intra- and extracellular pH. Superfusing the cells with solutions containing 85 mM NaCl, 50 mM KCl, 0.07 mM CaCl2, […] nigericin (a K^+/H^+ exchanger), and either 28 mM HEPES, or 28 mM TES bubbled with 5% CO2, pH 6.8 or 7.8, allowed to calibrate intracellular signals. […]

[5] = biological target: T2, NHE1 antiporter (Mus musculus, UniProt Q61165); assay: Barrier recovery (TEWL) after tape stripping; assay type: in vivo; conditions: for kinetics of barrier recovery after tape-stripping: NHE1 inhibitors, topical, hairless mice
T2 construct: from tissue; host or cells: skin (epidermis / stratum corneum) of living hairless mice
Description: (§1) Permeability Barrier Studies: Normal hairless mice were treated topically twice a daily for three days with BPB (4 mg/mL) or MJ33 (4 mg/mL) both in propylene glycol:ethanol (7:3 v/v) vehicle, or the vehicle alone on an area of 5-6 cm on the backs and flanks as described previously (Mao-Qiang, M., et al., J. Lipid Res. 36:1926-35 (1995)). The doses employed were shown previously to be non-toxic to Murine skin (Mao-Qiang, M., et al. (1995); Mao-Qiang, M., et al., J. Invest. Dermatol. 106:57-63 (1996)), and to inhibit secretory phospholipase A2 (sPLA2) activity selectively in different cell types (Gelb, M. H., et al., Faseb J. 8:916-24 (1994); Jain, M. K., et al. (1991)). The acidification experiments were performed with 10 mM HEPES-buffer, adjusted to either pH 5.5 or pH 7.4 as follows: One flank of anesthetized mice was immersed on a mesh netting, as described previously (Lee, S. H., et al., J. Clin. Invest. 89:530-8 (1992)). The mice were anesthetized with chloral hydrate (Morton Grove Pharmaceuticals, Morton Grove, Ill., USA). After 3 hours immersion at 37° C., the mice were removed, and the remaining buffer was gently blotted off. After 15 minutes, barrier function was determined by measurement of transepidermal water loss (TEWL) with an electrolytic water analyzer (MEECO®, Warrington, Pa.). Surface pH was measured with a flat, glass surface electrode from Mettler-Toledo (Giessen, Germany), attached to a pH meter (Skin pH Meter PH 900, Courage & Khazaka, Cologne, Germany). Individually tested sites were covered with Hilltop Chambers (HtC, nominal volume […]), which were reapplied following each indvidual measurement.
(§2) The stratum corneum was removed by several strippings with adhesive tape (Tesa, Beiersdorf, Germany) inducing an increase in TEWL rates above baseline (from 0.2 to approximately 7-9 g/m^2/h). Two sites were prepared on each animal, and TEWL and surface pH were measured at 0, 2, 5 and 24 hrs following the stripping and the applications of inhibitors. Biopsies were taken for electron microscopy from treated and control sites, at 5 and 24 hours. For studies in the NHE1 knockout mice, homozygous (−/−) mice were compared to their wildtype (+/+) littermates. Flanks of these mice were shaved, and barrier homostasis was studied 48 hours later. For tape-stripping of these animals, D-Squame disks (Cu-derm, Dallas, Tex.) were used, as Tesa tape was too disruptive for application to shaved, hairy mouse skin.
Hairless mice were tape stripped to TEWL of 7-9 g/m^2/h. […] Control areas were covered with Hilltop Chambers containing 10 mM HEPES buffer adjusted to pH 7.4 or pH 5.5 as appropriate. TEWL was measured at 0, 2, 5, and 24 hours post tape-strip. The results are reported as percent barrier recovery from the initial induced defect.

[6] = biological target: T2, NHE1 antiporter; assay: Stratum corneum surface pH after tape stripping with buffers with or without NHE1 inhibitor; assay type: in vivo
Description: as §1, §2
To investigate the role of NHE 1 in maintaining the pH balance of the stratum corneum, the integrity of murine skin exposed to different buffers and NHE1 inhibitors, was disrupted by tape-stripping. The pH of the exposed skin was measured before and after tape-stripping. Before tape-stripping, the surface pH in all animals was acidic (6.03+/−0.20, n=78). […] At five hours post-tape-strip, these samples were still not fully recovered, remaining more than 0.05 pH units higher than the initial post-tape-strip values.

[7] = system: hairless mice skin (stratum corneum); assay: Electron microscopy of lamellar body secretion and extracellular lipid processing; assay type: in vivo, mouse; conditions: EM of biopsies
Description: as §2
Ultrastructural methods: Freshly obtained biopsies from mouse skin were fixed directly in modified Karnovsky's fixative, postfixed with reduced osmium tetroxide (OS04) and then imbedded in an Epon-epoxy mixture. For visualization of lipid-enriched, lamellar bilayer structures, some samples were post fixed in ruthenium tetroxide (RuO4). Sections were cut on a Reichert Ultracut E microtome, counterstained with uranyl acetate and lead citrate, and viewed in a Zeiss 10 CR electron microscope, operated at 60 kV.
Biopsies were taken during time course experiments.

[8] = fatty acid co-applied with MJ33 for three days
[9] = inhibitor in pH 7.4 buffer (amiloride 5 μM, HOE694 7.5 μM), two hours post tape-strip
[10] = inhibitor in pH 7.4 buffer, five hours post tape-strip
[11] = HOE694 in pH 7.4 buffer, two hours post tape strip

T1 sequence (P19634 whole entry): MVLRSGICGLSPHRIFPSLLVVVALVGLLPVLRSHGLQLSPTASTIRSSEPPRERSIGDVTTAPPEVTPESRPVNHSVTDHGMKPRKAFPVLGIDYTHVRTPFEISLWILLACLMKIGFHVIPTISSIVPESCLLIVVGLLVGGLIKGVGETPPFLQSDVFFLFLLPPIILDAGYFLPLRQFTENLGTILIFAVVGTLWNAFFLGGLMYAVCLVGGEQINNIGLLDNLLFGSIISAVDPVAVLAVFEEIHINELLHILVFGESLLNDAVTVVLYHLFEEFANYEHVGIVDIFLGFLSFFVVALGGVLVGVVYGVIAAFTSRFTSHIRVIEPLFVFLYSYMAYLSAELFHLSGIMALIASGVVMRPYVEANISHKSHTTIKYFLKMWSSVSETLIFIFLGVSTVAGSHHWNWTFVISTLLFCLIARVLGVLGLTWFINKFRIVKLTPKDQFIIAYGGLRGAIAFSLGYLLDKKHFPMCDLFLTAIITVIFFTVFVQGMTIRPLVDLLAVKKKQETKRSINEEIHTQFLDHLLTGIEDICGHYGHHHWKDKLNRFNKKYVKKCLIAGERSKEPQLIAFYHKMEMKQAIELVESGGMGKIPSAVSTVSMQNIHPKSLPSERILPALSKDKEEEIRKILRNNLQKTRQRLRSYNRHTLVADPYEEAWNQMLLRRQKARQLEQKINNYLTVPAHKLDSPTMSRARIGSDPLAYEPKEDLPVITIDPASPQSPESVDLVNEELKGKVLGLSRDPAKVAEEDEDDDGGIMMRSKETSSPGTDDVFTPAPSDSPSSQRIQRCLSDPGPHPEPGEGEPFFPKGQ
T2 sequence (Q61165 whole entry): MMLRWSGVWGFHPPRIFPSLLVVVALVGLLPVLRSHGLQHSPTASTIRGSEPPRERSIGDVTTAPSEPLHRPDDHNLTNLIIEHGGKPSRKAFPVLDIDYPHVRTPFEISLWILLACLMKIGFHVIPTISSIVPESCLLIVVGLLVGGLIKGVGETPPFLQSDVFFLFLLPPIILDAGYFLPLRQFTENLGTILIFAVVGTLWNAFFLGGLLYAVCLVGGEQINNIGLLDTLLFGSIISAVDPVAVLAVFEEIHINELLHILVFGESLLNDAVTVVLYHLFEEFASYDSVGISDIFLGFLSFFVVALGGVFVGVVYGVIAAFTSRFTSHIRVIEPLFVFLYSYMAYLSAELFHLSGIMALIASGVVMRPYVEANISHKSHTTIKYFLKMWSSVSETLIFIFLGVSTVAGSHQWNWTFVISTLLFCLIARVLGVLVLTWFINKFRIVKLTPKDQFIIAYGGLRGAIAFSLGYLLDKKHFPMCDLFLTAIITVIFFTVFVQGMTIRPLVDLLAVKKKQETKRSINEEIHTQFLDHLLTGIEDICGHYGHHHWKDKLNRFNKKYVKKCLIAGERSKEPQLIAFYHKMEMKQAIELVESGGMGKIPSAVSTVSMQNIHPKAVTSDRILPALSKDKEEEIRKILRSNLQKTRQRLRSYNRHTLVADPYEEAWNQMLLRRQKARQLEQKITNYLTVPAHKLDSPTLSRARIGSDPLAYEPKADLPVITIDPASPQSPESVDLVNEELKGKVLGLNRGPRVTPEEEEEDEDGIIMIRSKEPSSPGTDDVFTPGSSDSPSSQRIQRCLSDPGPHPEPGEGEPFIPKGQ

Structure (SMILES): CCCCCCCCCCCCCCCCCC(=O)O [stearic acid]
- cumulative protein loss at the fifth strip [1]: about 25 μg/cm^2
- pH of the stratum corneum [2]: 5.73+/−0.09
- TEWL rate by the fifth strip [3]: about 25 g/m^2/h
- sPLA2 inhibitor induced abnormalities in stratum corneum integrity and cohesion [3]: prevented emergence

Structure (SMILES): CCCCCCCCCCCCCCCC(=O)O [palmitic acid]
- cumulative protein loss at the fifth strip [1]: about 40 μg/cm^2
- loss of protein after three strippings [1, 8]: about 30 μg/cm^2
- pH of the stratum corneum [2]: 5.40+/−0.14
- TEWL rate by the fifth strip [3]: 55-60 g/m^2/h
- sPLA2 inhibitor induced abnormalities in stratum corneum integrity and cohesion [3]: prevented emergence
- TEWL rate after three sequential tape-strippings [3, 8]: 30-35 g/m^2/h

Structure (SMILES): Cl.N [NH4Cl, ammonium chloride]
- intracellular pH response ([4]; NH4Cl added to cultures of CHK, initial alkalinization, then after dissociation of the ammonium ion): take on an acid load

Structure (SMILES): N=C(N)NC(=O)c1nc(Cl)c(N)nc1N [amiloride, N-Amido-3,5-diamino-6-chloropyrazinecarboxamide]
- kinetics of barrier recovery after tape-stripping [5]: delayed barrier recovery
- percent barrier recovery (TEWL rate less than the initial induced rate) [5, 9]: about 12%
- percent barrier recovery (TEWL rate less than the initial induced rate) [5, 10]: about 25%
- effect after wash out period ([4]; cultured human keratinocytes, wash out of amiloride, recovery from the acid load): non-permanent, non-toxic effect

Structure (SMILES): CS(=O)(=O)c1cc(C(=O)NC(=N)N)ccc1N1CCCCC1 [HOE694, 3-methylsulfonyl-4-piperidino-benzoylguanidinemethanesulfonate]
- percent barrier recovery (TEWL rate less than the initial induced rate) ([5]; HOE694 in pH 5.5 buffer, 2 hours post tape-strip): 25%
- percent barrier recovery (TEWL rate less than the initial induced rate) ([5]; HOE694 in pH 5.5 buffer, 5 hours post tape-strip): 38%
- percent barrier recovery (TEWL rate less than the initial induced rate) ([5]; HOE694 in pH 5.5 buffer, 24 hours post tape-strip): 75%
- kinetics of barrier recovery after tape-stripping [5]: delayed barrier recovery
- percent barrier recovery (TEWL rate less than the initial induced rate) [5, 9]: about 12%
- percent barrier recovery (TEWL rate less than the initial induced rate) ([5]; inhibitor in pH 7.4 buffer, 24 hours post tape-strip): about 45%
- percent barrier recovery (TEWL rate less than the initial induced rate) [5, 10]: 23%
- intracellular pH ([4]; 1.5 μM for 16 hours, dropped from pH 7.05): 6.90 pH
- initial post-tape-strip pH value vs pH 5.5 buffer alone ([6]; HOE694 in pH 5.5 buffer): increased significantly
- pH increase over the initial post-tape-strip value ([6]; HOE694 in pH 5.5 buffer, five hours post-tape-strip): more than 0.05 pH units
- pH increase over the initial post-tape-strip value ([6]; HOE694 in pH 5.5 buffer, two hours post-tape-strip): more than 0.1 pH units
- initial post-tape-strip pH value vs pH 7.4 buffer only ([6]; HOE694 in pH 7.4 buffer): similar
- elevated pH at five hours ([6]; HOE694 in pH 7.4 buffer, five hours post tape strip): persisted and even increased
- pH increase over the initial post-tape-strip value [6, 11]: > 0.1 pH unit
- pH increase over the two hour time point of pH 7.4 buffer alone [6, 11]: ~0.05 pH units
- extracellular processing of secreted lipids ([7]; HOE694 in pH 5.5 buffer): appeared normal
- extracellular processing of secreted lipids ([7]; HOE694 in pH 7.4 buffer): defective
- lamellar body formation and secretion ([7]; HOE694 in pH 7.4 buffer): undisturbed

Structure (SMILES): CCCCC/C=C\C/C=C\CCCCCCCC(=O)O [linoleic acid]
- pH of the stratum corneum [2]: 5.77+/−0.10
- sPLA2 inhibitor induced abnormalities in stratum corneum integrity and cohesion [3]: to a lesser extent
